Source: the Kinase Knowledgebase extract (Sharma et al. 2016)

Assays:
PIK3CB (Human) = PIK3CB (Human) (UniProt P42338); test: Assessment of PIK3CB Kinase Binding Activity
PIK3CG (human) = PIK3CG (human) (UniProt P48736); test: Assessment of PIK3CG Kinase Binding Activity
PIK3CD (Human) = PIK3CD (Human) (UniProt O00329); test: Assessment of PIK3CD Kinase Binding Activity
PIK3CA (human) [1] = target: PIK3CA (human) (UniProt P42336); test: Assessment of PIK3CA Kinase Binding Activity
PIK3CA (human) [2] = target: PIK3CA (human) (UniProt P42336); test: Inhibition of PIK3CA Kinase Activity
PIK3CA (human) [3] = target: PIK3CA (human) (UniProt P42336); test: Inhibition of A2780 Cell Proliferation

PIK3CA (human), sequence (P42336 whole entry, looked up): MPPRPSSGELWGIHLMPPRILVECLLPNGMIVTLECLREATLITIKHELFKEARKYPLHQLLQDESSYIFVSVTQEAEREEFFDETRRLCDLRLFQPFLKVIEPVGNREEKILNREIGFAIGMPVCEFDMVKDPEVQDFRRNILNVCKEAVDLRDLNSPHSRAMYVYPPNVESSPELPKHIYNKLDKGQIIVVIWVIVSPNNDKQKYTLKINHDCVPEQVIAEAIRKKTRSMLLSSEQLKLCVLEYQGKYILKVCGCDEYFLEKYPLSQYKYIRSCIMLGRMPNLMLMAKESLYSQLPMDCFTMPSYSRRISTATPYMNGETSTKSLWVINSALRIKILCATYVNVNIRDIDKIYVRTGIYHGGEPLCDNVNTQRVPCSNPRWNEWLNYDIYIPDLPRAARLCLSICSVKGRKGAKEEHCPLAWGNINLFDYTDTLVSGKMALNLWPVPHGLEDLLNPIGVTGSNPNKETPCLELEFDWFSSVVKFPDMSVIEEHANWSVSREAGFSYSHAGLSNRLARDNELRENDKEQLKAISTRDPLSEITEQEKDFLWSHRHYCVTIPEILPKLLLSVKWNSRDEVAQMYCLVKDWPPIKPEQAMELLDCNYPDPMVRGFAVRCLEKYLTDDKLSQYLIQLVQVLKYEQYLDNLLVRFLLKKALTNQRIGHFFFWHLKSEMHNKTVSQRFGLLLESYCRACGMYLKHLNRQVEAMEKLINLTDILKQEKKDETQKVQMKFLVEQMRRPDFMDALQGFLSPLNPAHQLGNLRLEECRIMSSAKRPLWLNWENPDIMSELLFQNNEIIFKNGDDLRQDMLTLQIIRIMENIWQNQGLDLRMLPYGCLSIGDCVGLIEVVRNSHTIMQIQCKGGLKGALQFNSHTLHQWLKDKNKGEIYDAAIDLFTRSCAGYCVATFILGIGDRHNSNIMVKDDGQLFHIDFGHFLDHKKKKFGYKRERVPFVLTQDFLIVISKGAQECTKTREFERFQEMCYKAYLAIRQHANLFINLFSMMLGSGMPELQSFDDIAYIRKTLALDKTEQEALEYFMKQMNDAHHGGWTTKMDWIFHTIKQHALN
PIK3CB (Human), sequence (P42338 whole entry, looked up): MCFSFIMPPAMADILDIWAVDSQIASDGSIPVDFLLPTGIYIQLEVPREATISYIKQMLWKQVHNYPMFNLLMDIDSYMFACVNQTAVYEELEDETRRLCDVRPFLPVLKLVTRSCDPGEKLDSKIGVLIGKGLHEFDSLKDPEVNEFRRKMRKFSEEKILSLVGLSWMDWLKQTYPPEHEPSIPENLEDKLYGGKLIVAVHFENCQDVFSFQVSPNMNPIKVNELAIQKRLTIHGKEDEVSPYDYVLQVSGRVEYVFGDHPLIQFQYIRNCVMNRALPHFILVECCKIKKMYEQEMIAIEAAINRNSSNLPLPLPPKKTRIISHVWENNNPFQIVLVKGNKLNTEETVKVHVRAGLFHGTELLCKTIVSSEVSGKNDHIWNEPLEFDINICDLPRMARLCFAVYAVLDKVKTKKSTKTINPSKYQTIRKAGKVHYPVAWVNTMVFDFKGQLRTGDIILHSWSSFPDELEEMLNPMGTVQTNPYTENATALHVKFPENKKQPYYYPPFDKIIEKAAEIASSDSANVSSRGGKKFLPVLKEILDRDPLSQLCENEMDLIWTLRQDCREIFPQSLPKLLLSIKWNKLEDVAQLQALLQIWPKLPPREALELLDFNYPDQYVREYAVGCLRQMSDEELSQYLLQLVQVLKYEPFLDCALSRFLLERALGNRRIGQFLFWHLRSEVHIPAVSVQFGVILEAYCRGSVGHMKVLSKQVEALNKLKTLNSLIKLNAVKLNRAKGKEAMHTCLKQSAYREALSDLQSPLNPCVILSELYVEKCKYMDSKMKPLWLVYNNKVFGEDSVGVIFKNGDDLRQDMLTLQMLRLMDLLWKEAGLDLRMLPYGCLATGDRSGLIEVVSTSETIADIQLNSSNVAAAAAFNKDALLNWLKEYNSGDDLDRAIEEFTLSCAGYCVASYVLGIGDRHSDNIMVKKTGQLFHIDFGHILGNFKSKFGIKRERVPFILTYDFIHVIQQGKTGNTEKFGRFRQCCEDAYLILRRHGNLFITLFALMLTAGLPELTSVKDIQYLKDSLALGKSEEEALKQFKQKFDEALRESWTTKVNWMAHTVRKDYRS
PIK3CD (Human), sequence (O00329 whole entry, looked up): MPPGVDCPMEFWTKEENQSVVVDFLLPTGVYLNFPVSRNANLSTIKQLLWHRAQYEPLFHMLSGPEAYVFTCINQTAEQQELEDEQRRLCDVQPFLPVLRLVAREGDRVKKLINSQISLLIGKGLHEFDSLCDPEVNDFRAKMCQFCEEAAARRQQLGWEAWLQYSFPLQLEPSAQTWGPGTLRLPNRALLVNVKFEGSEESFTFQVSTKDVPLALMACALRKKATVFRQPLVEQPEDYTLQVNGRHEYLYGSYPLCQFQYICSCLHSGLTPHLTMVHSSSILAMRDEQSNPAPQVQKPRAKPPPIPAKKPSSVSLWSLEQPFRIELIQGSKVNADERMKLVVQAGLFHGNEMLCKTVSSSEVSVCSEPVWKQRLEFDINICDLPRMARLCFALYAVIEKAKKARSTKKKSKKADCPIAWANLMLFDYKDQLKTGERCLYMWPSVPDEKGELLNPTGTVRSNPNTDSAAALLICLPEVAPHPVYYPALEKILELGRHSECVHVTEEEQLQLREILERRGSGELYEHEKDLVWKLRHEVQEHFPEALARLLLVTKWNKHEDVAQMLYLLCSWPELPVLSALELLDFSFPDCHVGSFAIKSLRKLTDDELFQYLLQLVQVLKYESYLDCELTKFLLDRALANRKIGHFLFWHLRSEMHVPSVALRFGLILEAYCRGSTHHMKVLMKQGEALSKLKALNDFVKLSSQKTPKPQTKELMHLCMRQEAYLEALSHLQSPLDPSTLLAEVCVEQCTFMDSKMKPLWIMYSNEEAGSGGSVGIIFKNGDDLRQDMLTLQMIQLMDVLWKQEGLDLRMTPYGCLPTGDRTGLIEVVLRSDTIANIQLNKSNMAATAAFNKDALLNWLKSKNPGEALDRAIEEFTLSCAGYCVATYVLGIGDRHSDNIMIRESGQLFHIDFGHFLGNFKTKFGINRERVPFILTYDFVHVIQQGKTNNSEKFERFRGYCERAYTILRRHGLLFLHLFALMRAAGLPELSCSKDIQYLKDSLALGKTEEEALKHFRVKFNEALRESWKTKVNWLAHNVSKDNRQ
PIK3CG (human), sequence (P48736 whole entry, looked up): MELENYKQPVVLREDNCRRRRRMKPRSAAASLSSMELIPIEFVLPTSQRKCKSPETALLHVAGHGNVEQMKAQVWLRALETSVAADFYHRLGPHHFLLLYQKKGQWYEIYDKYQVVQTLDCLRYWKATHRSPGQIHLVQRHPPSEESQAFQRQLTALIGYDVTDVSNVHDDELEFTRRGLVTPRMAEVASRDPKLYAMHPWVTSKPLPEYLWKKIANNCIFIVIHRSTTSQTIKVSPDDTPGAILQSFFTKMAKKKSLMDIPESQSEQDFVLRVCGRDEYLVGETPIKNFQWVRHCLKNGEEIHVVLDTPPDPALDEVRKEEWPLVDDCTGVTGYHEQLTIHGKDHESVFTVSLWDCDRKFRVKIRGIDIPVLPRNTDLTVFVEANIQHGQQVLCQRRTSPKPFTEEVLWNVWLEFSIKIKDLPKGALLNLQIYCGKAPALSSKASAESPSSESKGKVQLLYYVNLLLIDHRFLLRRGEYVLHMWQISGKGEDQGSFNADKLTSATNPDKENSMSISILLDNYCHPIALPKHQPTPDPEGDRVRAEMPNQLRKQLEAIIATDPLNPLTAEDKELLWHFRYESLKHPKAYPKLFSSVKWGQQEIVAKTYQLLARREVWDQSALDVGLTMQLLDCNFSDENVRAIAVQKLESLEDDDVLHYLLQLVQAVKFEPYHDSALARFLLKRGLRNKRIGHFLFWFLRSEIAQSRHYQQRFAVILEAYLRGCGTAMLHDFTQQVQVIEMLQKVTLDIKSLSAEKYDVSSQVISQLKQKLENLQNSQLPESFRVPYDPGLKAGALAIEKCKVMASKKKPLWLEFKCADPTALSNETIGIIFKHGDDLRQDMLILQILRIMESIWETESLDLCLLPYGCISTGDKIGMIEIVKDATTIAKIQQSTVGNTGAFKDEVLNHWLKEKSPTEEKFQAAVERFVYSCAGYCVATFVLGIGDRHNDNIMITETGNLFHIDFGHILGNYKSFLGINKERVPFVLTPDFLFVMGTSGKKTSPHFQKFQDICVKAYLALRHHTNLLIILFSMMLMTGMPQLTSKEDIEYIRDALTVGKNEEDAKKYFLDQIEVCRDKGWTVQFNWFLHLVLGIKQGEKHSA

SMILES	Ki (PIK3CB (Human)) [µM]	Ki (PIK3CG (human)) [µM]	Ki (PIK3CD (Human)) [µM]	Ki (PIK3CA (human) [1]) [µM]	IC50 (PIK3CA (human) [2]) [µM]	EC50 (PIK3CA (human) [3]) [µM]
CCn1nnc(CCNC(=O)Nc2cn3cc(-c4cnc(N)c(C(F)(F)F)c4)ccc3n2)n1	< 1	< 1	< 1	< 1		
CCc1cnc(CCNC(=O)Nc2cn3cc(-c4cnc(N)c(C(F)(F)F)c4)ccc3n2)o1	< 1	< 1	< 1	< 1		
CC(C)n1nnc(CCNC(=O)Nc2cn3cc(-c4cnc(N)c(C(F)(F)F)c4)ccc3n2)n1	< 1	< 1	< 1	< 1		
CCc1nnn(CCNC(=O)Nc2cn3cc(-c4cnc(N)c(C(F)(F)F)c4)ccc3n2)n1	< 1	< 1	< 1	< 1		
Nc1ncc(-c2ccc3nc(NC(=O)NCCn4nnc(C5CC5)n4)cn3c2)cc1C(F)(F)F	< 1	< 1	< 1	< 1		
CC(C)n1nnc(CCNC(=O)Nc2cn3cc(-c4ccc(N)nc4)ccc3n2)n1	< 1	< 1	< 1	< 10		
CN(C)CCCC(=O)Nc1cn2nc(-c3cnc(N)c(C(F)(F)F)c3)ccc2n1					< 1	< 1
CC(=O)Nc1cn2nc(-c3cnc(N)c(Cl)c3)ccc2n1					< 1	< 1
CC(=O)Nc1nc2ccc(-c3cnc(N)c(C(F)(F)F)c3)cn2c1Cl					< 1	< 10
CC(=O)Nc1cn2cc(-c3cnc(N)c(OC4CNC4)n3)ccc2n1					< 1	< 25
CC(=O)Nc1cn2cc(-c3cnc(N)c(Oc4ccc(N5CCN(C(C)=O)CC5)cc4)n3)ccc2n1					< 1	< 10
CC(C)(C)OC(=O)N1CCC1C(=O)Nc1cn2cc(-c3cnc(N)c(OCC(F)(F)F)n3)ccc2n1 (configuration not stated)					< 1	< 25
CNCC(=O)Nc1cn2cc(-c3cnc(N)c(C(F)(F)F)c3)ccc2n1					< 1	< 1
CC(=O)Nc1cn2cc(-c3cnc(N)cn3)ccc2n1					< 1	< 25
CC(=O)Nc1cn2nc(-c3cnc(N)c(C(=O)O)c3)ccc2n1					< 1	< 25
CC(=O)Nc1cn2cc(-c3cnc(N)c(-c4cccc(OC(F)(F)F)c4)c3)ccc2n1					< 1	< 1
C/C=C\c1c(NC(C)=O)nc2ccc(-c3cnc(N)c(C(F)(F)F)c3)cn12					< 1	< 25
Nc1ncc(-c2ccc3nc(NC(=O)c4ccccn4)cn3c2)cc1C(F)(F)F					< 1	< 25
CC(=O)Nc1cn2cc(-c3cnc(N)c(C)c3)ccc2n1					< 1	< 10
COc1c(-c2cnc(N)c(C(F)(F)F)c2)ccc2nc(NC(=O)C(F)(F)F)cn12					< 25	< 25
Nc1ncc(-c2ccc3nc(NC(=O)C(F)(F)F)cn3c2O)cc1C(F)(F)F					< 10	< 25
CC(=O)Nc1nc2ccc(-c3cnc(N)c(C(F)(F)F)c3)cn2c1C#Cc1ccncc1					< 1	< 1
CC(=O)Nc1cn2nc(-c3cnc(N)c(-c4ccccc4C(F)(F)F)c3)ccc2n1					< 1	< 1
CC(=O)Nc1cn2nc(-c3cnc(N)c(C(=O)NCCN4CCCC4)c3)ccc2n1					< 1	< 10
CC(C)(C(=O)Nc1cn2cc(-c3cnc(N)c(C(F)(F)F)c3)ccc2n1)c1ccccc1					< 10	< 25

SMILES	Ki (PIK3CB (Human)) [µM]	Ki (PIK3CG (human)) [µM]	Ki (PIK3CD (Human)) [µM]	Ki (PIK3CA (human) [1]) [µM]	IC50 (PIK3CA (human) [2]) [µM]	EC50 (PIK3CA (human) [3]) [µM]
Nc1ncc(-c2ccc3nc(NC(=O)[C@@H]4CCCN4)cn3n2)cc1C(F)(F)F					< 1	< 10
COC(=O)CCCC(=O)Nc1cn2nc(-c3cnc(N)c(C(F)(F)F)c3)ccc2n1					< 1	< 10
COc1ccccc1-c1cc(-c2ccc3nc(NC(C)=O)cn3n2)cnc1N					< 1	< 10
CC(=O)Nc1cn2cc(-c3cnc(N)c(C(F)(F)F)c3)cc(F)c2n1					< 1	< 10
C[C@@H](NC(=O)OC(C)(C)C)C(=O)Nc1cn2nc(-c3cnc(N)c(C(F)(F)F)c3)ccc2n1					< 1	< 10
CC(=O)Nc1nc2c(F)cc(-c3cnc(N)c(C(F)(F)F)c3)cc2s1					< 1	< 25
CC(=O)Nc1nc2ccc(-c3cnc(N)c(C(F)(F)F)c3)cn2c1C#CCNC(=O)OC(C)(C)C					< 1	< 10
CNC(=O)c1ccc(-c2c(NC(C)=O)nc3ccc(-c4cnc(N)c(C(F)(F)F)c4)cn23)cc1					< 1	< 25
CC(=O)Nc1nc2cc(F)c(-c3cnc(N)c(C(F)(F)F)c3)cc2s1					< 1	< 25
COc1nc(-c2cc(F)c3nc(NC(C)=O)cn3c2)cnc1N					< 1	< 25
CC(=O)Nc1cn2nc(-c3cnc(N)c(C(=O)NCCN)c3)ccc2n1					< 1	< 25
CC(C)(C)OC(=O)N1CC[C@@H](OCC(=O)Nc2cn3nc(-c4cnc(N)c(C(F)(F)F)c4)ccc3n2)C1					< 1	< 1
CCOCC(=O)Nc1cn2cc(-c3cnc(N)c(C(F)(F)F)c3)ccc2n1					< 1	< 10
CC(C)(C)OC(=O)NCCCC(=O)Nc1cn2nc(-c3cnc(N)c(C(F)(F)F)c3)ccc2n1					< 1	< 1
CC(=O)Nc1nc2ccc(-c3cnc(N)c(C(F)(F)F)c3)cn2c1C#CCN1CCOCC1					< 1	< 10
CC(=O)Nc1cn2cc(-c3cnc(N)c(OC4CCC4)n3)ccc2n1					< 1	< 1
CCC(=O)Nc1cn2cc(-c3cnc(N)c(C(F)(F)F)c3)ccc2n1					< 1	< 10
CC(=O)Nc1cn2cc(-c3cnc(N)c(-c4ccccc4OC(F)(F)F)c3)ccc2n1					< 1	< 10
CC(=O)Nc1cn2c(C)c(-c3cnc(N)c(C(F)(F)F)c3)ccc2n1					< 1	< 10
CC(=O)Nc1cn2cc(-c3cnc(N)c(C#N)c3)ccc2n1					< 1	< 10
CC(=O)Nc1cn2cc(-c3cnc(N)c(-c4cccc(N5CCOCC5)c4)c3)ccc2n1					< 1	< 1
CCOCC(=O)Nc1cn2nc(-c3cnc(N)c(C(F)(F)F)c3)ccc2n1					< 1	< 10
Nc1ncc(-c2ccc3nc(NC(=O)CN4CCCCC4)cn3c2)cc1C(F)(F)F					< 1	< 10
Nc1ccc(-c2ccc3nc(NC(=O)CCCN4CCOCC4)sc3c2)cn1					< 1	< 25
CC(=O)Nc1cn2nc(-c3cnc(N)c(CN4CCCC4)c3)ccc2n1					< 1	< 10
